# Assay results as given in ChEMBL document CHEMBL2440027, “Further SAR studies on bicyclic basic merbarone analogues as potent antiproliferative agents” (Bioorg Med Chem, 2013).
# Experiments:
# Assay type in all cases: functional
# T47D = assay: Growth inhibition of human T47D cells assessed as cell growth at 10 uM after 48 hrs by sulforhodamine B assay relative to control; conditions: read-out: Activity
# [1] = Growth inhibition of human HCC2998 cells after 48 hrs by sulforhodamine B assay; conditions: HCC 2998, 48 h
# SK-MEL-28 = assay: Growth inhibition of human SK-MEL-28 cells after 48 hrs by sulforhodamine B assay; conditions: SK-MEL-28, 48 h; for CC50: read-out: LC50 (the source's name)
# NCI-H460 [2] = assay: Growth inhibition of human NCI-H460 cells after 48 hrs by sulforhodamine B assay; conditions: NCI-H460, 48 h
# HOP-92 = assay: Growth inhibition of human HOP92 cells after 48 hrs by sulforhodamine B assay; conditions: HOP-92, 48 h
# SK-MEL-2 = assay: Growth inhibition of human SK-MEL-2 cells after 48 hrs by sulforhodamine B assay; conditions: SK-MEL-2, 48 h
# BT-549 = assay: Growth inhibition of human BT549 cells after 48 hrs by sulforhodamine B assay; conditions: BT-549, 48 h; for CC50: read-out: LC50 (the source's name)
# SNB-19 = assay: Growth inhibition of human SNB19 cells assessed as cell growth at 10 uM after 48 hrs by sulforhodamine B assay relative to control; conditions: SNB-19, 48 h, read-out: Activity
# RXF 393 = assay: Growth inhibition of human RXF393 cells assessed as cell growth at 10 uM after 48 hrs by sulforhodamine B assay relative to control; conditions: RXF 393, 48 h, read-out: Activity
# [3] = Growth inhibition of human EKVX cells after 48 hrs by sulforhodamine B assay; conditions: for CC50: read-out: LC50 (the source's name)
# SF-539 [4] = assay: Growth inhibition of human SF539 cells assessed as cell growth at 10 uM after 48 hrs by sulforhodamine B assay relative to control; conditions: SF-539, 48 h, read-out: Activity
# IGROV-1 [5] = assay: Growth inhibition of human IGROV1 cells assessed as cell growth at 10 uM after 48 hrs by sulforhodamine B assay relative to control; conditions: IGROV-1, 48 h, read-out: Activity
# SF-268 = assay: Growth inhibition of human SF268 cells assessed as cell growth at 10 uM after 48 hrs by sulforhodamine B assay relative to control; conditions: SF-268, 48 h, read-out: Activity
# SR = assay: Growth inhibition of human SR cells after 48 hrs by sulforhodamine B assay
# IGROV-1 [6] = assay: Growth inhibition of human IGROV1 cells after 48 hrs by sulforhodamine B assay; conditions: IGROV-1, 48 h; for CC50: read-out: LC50 (the source's name)
# KM12 = assay: Growth inhibition of human KM12 cells assessed as cell growth at 10 uM after 48 hrs by sulforhodamine B assay relative to control; conditions: KM12, 48 h, read-out: Activity
# K562 = assay: Growth inhibition of human K562 cells after 48 hrs by sulforhodamine B assay; conditions: K562, 48 h
# NCI-H460 [7] = assay: Growth inhibition of human NCI-H460 cells assessed as cell growth at 10 uM after 48 hrs by sulforhodamine B assay relative to control; conditions: NCI-H460, 48 h, read-out: Activity
# HT-29 = assay: Growth inhibition of human HT-29 cells assessed as cell growth at 10 uM after 48 hrs by sulforhodamine B assay relative to control; conditions: HT-29, 48 h, read-out: Activity
# SK-OV-3 = assay: Growth inhibition of human SKOV3 cells assessed as cell growth at 10 uM after 48 hrs by sulforhodamine B assay relative to control; conditions: SK-OV-3, 48 h, read-out: Activity
# COLO 205 = assay: Growth inhibition of human COLO205 cells after 48 hrs by sulforhodamine B assay; conditions: COLO 205, 48 h; for CC50: read-out: LC50 (the source's name)
# MOLT-4 = assay: Growth inhibition of human MOLT4 cells after 48 hrs by sulforhodamine B assay; conditions: MOLT-4, 48 h
# SF-539 [8] = assay: Growth inhibition of human SF539 cells after 48 hrs by sulforhodamine B assay; conditions: SF-539, 48 h; for CC50: read-out: LC50 (the source's name)
# UO-31 = assay: Growth inhibition of human UO31 cells assessed as cell growth at 10 uM after 48 hrs by sulforhodamine B assay relative to control; conditions: UO-31, 48 h, read-out: Activity
# A549 = assay: Growth inhibition of human A549/ATCC cells assessed as cell growth at 10 uM after 48 hrs by sulforhodamine B assay relative to control; conditions: A549, 48 h, read-out: Activity
# MDA-MB-231 = assay: Growth inhibition of human MDA-MB-231 cells assessed as cell growth at 10 uM after 48 hrs by sulforhodamine B assay relative to control; conditions: MDA-MB-231, 48 h, read-out: Activity
# [9] = Growth inhibition of human NCI-ADR-RES cells assessed as cell growth at 10 uM after 48 hrs by sulforhodamine B assay relative to control; conditions: read-out: Activity
# MDA-MB-468 = assay: Growth inhibition of human MDA-MB-468 cells after 48 hrs by sulforhodamine B assay; conditions: MDA-MB-468, 48 h
# HL-60(TB) = assay: Growth inhibition of human HL-60(TB) cells assessed as cell growth at 10 uM after 48 hrs by sulforhodamine B assay relative to control; conditions: HL-60, 48 h, read-out: Activity
# OVCAR-4 = assay: Growth inhibition of human OVCAR4 cells assessed as cell growth at 10 uM after 48 hrs by sulforhodamine B assay relative to control; conditions: OVCAR-4, 48 h, read-out: Activity
# HCT-116 = assay: Growth inhibition of human HCT116 cells after 48 hrs by sulforhodamine B assay; conditions: HCT-116, 48 h
# SF-295 = assay: Growth inhibition of human SF295 cells after 48 hrs by sulforhodamine B assay; conditions: SF-295, 48 h; for CC50: read-out: LC50 (the source's name)
# 786-0 = assay: Growth inhibition of human 786-0 cells assessed as cell growth at 10 uM after 48 hrs by sulforhodamine B assay relative to control; conditions: 786-0, 48 h, read-out: Activity
# [10] = Growth inhibition of human EKVX cells assessed as cell growth at 10 uM after 48 hrs by sulforhodamine B assay relative to control; conditions: read-out: Activity
smiles,measurement,setting,value
CN(C)CCNc1nc2c(c(=N)n1-c1ccccc1)c(=S)n(-c1ccccc1)c(=S)n2-c1ccccc1,growth at 10 µM,T47D,-19.4%
same,GI50,[1],2.3 µM
same,LC50,[1],43 µM
same,TGI,[1],6.8 µM
same,GI50,SK-MEL-28,0.6 µM
same,TGI,SK-MEL-28,2.1 µM
same,CC50,SK-MEL-28,5.8 µM
same,GI50,NCI-H460 [2],3.2 µM
same,LC50,NCI-H460 [2],61.2 µM
same,TGI,NCI-H460 [2],11.8 µM
same,GI50,HOP-92,1.8 µM
same,LC50 (concentration killing 50% of cells),HOP-92,60.1 µM
same,TGI,HOP-92,10.3 µM
same,GI50,SK-MEL-2,1.7 µM
same,LC50,SK-MEL-2,6.7 µM
same,TGI,SK-MEL-2,3.4 µM
same,GI50,BT-549,5.3 µM
same,TGI,BT-549,21.3 µM
same,CC50,BT-549,62.1 µM
same,growth at 10 µM,SNB-19,26.1%
same,growth at 10 µM,RXF 393,-39.1%
same,GI50,[3],12.1 µM
same,TGI,[3],32.2 µM
same,CC50,[3],85.8 µM
same,growth at 10 µM,SF-539 [4],-86.9%
same,growth at 10 µM,IGROV-1 [5],36.3%
same,growth at 10 µM,SF-268,24%
same,GI50,SR,1.4 µM
same,LC50,SR,8.2 µM
same,TGI,SR,3.3 µM
same,GI50,IGROV-1 [6],8.1 µM
same,TGI,IGROV-1 [6],23 µM
same,CC50,IGROV-1 [6],57.5 µM
same,growth at 10 µM,KM12,0.2%
same,GI50,K562,0.4 µM
same,LC50 (concentration killing 50% of cells),K562,6.8 µM
same,TGI,K562,2.2 µM
same,growth at 10 µM,NCI-H460 [7],3.8%
same,growth at 10 µM,HT-29,-35.7%
same,growth at 10 µM,SK-OV-3,76.3%
same,GI50,COLO 205,1.6 µM
same,TGI,COLO 205,3.8 µM
same,CC50,COLO 205,9.1 µM
same,GI50,MOLT-4,1.8 µM
same,LC50,MOLT-4,17.2 µM
same,TGI,MOLT-4,4.7 µM
same,GI50,SF-539 [8],1.8 µM
same,TGI,SF-539 [8],3.5 µM
same,CC50,SF-539 [8],7 µM
same,growth at 10 µM,UO-31,3.1%
same,growth at 10 µM,A549,35.4%
same,growth at 10 µM,MDA-MB-231,-13%
same,growth at 10 µM,[9],58.8%
same,GI50,MDA-MB-468,1.2 µM
same,LC50 (concentration killing 50% of cells),MDA-MB-468,6 µM
same,TGI,MDA-MB-468,2.7 µM
same,growth at 10 µM,HL-60(TB),36.6%
same,growth at 10 µM,OVCAR-4,41.7%
same,GI50,HCT-116,2.7 µM
same,TGI,HCT-116,16 µM
same,GI50,SF-295,2.9 µM
same,TGI,SF-295,8.3 µM
same,CC50,SF-295,51.1 µM
same,growth at 10 µM,786-0,-83.5%
same,growth at 10 µM,[10],39.8%
CCCCN(CCCC)CCCNc1nc2c(c(=N)n1-c1ccccc1)c(=S)n(-c1ccccc1)c(=S)n2-c1ccccc1,growth at 10 µM,T47D,-62.1%
same,GI50,[1],0.4 µM
same,LC50,[1],4.7 µM
same,TGI,[1],1.8 µM
same,GI50,SK-MEL-28,0.2 µM
same,TGI,SK-MEL-28,0.3 µM
same,CC50,SK-MEL-28,0.7 µM
same,GI50,NCI-H460 [2],0.4 µM
same,LC50,NCI-H460 [2],4 µM
same,TGI,NCI-H460 [2],1.6 µM
same,GI50,HOP-92,0.2 µM
same,LC50 (concentration killing 50% of cells),HOP-92,3.5 µM
same,TGI,HOP-92,0.8 µM
same,GI50,SK-MEL-2,1.7 µM
same,LC50,SK-MEL-2,6.9 µM
same,TGI,SK-MEL-2,3.5 µM
same,GI50,BT-549,1.5 µM
same,TGI,BT-549,3.2 µM
same,CC50,BT-549,6.7 µM
same,growth at 10 µM,SNB-19,-87.4%
same,growth at 10 µM,RXF 393,-67.7%
same,GI50,[3],0.4 µM
same,TGI,[3],1.9 µM
same,CC50,[3],4.7 µM
same,growth at 10 µM,SF-539 [4],-97.7%
same,growth at 10 µM,IGROV-1 [5],-70.9%
same,growth at 10 µM,SF-268,-94%
same,GI50,SR,0.3 µM
same,LC50,SR,7 µM
same,TGI,SR,1.5 µM
same,GI50,IGROV-1 [6],1.9 µM
same,TGI,IGROV-1 [6],3.8 µM
same,CC50,IGROV-1 [6],7.5 µM
same,growth at 10 µM,KM12,-100%
same,GI50,K562,0.2 µM
same,growth at 10 µM,NCI-H460 [7],-95.7%
same,growth at 10 µM,HT-29,-63.3%
same,growth at 10 µM,SK-OV-3,-86.5%
same,GI50,COLO 205,0.2 µM
same,TGI,COLO 205,1.4 µM
same,CC50,COLO 205,6 µM
same,GI50,MOLT-4,0.3 µM
same,GI50,SF-539 [8],1.2 µM
same,TGI,SF-539 [8],2.7 µM
same,CC50,SF-539 [8],5.7 µM
same,growth at 10 µM,UO-31,-80.9%
same,growth at 10 µM,A549,-38.4%
same,growth at 10 µM,MDA-MB-231,-89.1%
same,growth at 10 µM,[9],-71.1%
same,GI50,MDA-MB-468,0.2 µM
same,LC50 (concentration killing 50% of cells),MDA-MB-468,0.6 µM
same,TGI,MDA-MB-468,0.3 µM
same,growth at 10 µM,HL-60(TB),-74.8%
same,growth at 10 µM,OVCAR-4,-82%
same,GI50,HCT-116,0.3 µM
same,TGI,HCT-116,1.1 µM
same,CC50,HCT-116; read-out: LC50 (the source's name),3.4 µM
same,GI50,SF-295,1.2 µM
same,TGI,SF-295,2.7 µM
same,CC50,SF-295,5.8 µM
same,growth at 10 µM,786-0,-100%
same,growth at 10 µM,[10],-74.2%
